Data set [1] can be described thus: in vivo. The note with it: monkey.
In data set [2] the test system is S.aureus Smith. As to the kind of experiment: Treating effect on infections in mouse. Type of data set: in vivo. The following applies: Staphylococcus aureus, S.aureus Smith infection.
In data set [3] the test system is P.vulgaris GN-329. As to the kind of experiment: Treating effect on infections in mouse. Type of data set: in vivo. The following applies: Proteus vulgaris, GN329, P.vulgaris GN-329 infection.
Data set [4] concerns S. pyogenes C-203. As to the kind of experiment: MIC by agar dilution method. In kind it is cell-based. The note with it: Streptococcus pyogenes, C203, inoculation amount 10^6 CFU/ml. The procedure: (§1) The minimal inhibitory concentration (MIC) was determined by an agar dilution method. That is, 1.0 ml each of an aqueous solution of a test compound diluted in series was poured into a petri dish. Trypticase soy agar (9 ml) was poured into the solution, and mixed. A suspension (about 10^6 CFU/ml) of test bacteria was smeared on the mixed agar plate.
(§2) Gram-positive bacteria; S. pyogenes C-203, S. agalactiae ATCC13813, S. pneumoniae Type I, S. pneumoniae SR16675(PC-R), S. mitis ATCC9811 Gram-negative bacteria: K. pneumoniae SR1, P. mirabilis PR-4 and P. vulgaris CN-329
A general note: Agar dilution tests growth on a series of plates holding different concentrations.

Data set [5] concerns P. mirabilis PR-4. As to the kind of experiment: MIC by agar dilution method. Type of data set: cell-based. The note with it: Proteus mirabilis, PR4, inoculation amount 10^6 CFU/ml. The procedure:
as §1, §2

In data set [6] the test system is S. pneumoniae SR16675(PC-R). As to the kind of experiment: MIC by agar dilution method. The following applies: Streptococcus pneumoniae, inoculation amount 10^6 CFU/ml. Type of data set: cell-based. The procedure:
as §1, §2

Data set [7] relates to S. pneumoniae Type I. Nature of the data set: MIC by agar dilution method. Type of data set: cell-based. The note with it: Streptococcus pneumoniae, inoculation amount 10^6 CFU/ml. The procedure: as §1, §2
The subject of data set [8] is S. agalactiae ATCC13813. As to the kind of experiment: MIC by agar dilution method. The following applies: Streptococcus agalactiae, inoculation amount 10^6 CFU/ml. Type of data set: cell-based. The procedure: as §1, §2
For data set [9], the system named is P. vulgaris CN-329. Nature of the data set: MIC by agar dilution method. Type of data set: cell-based. The following applies: Proteus vulgaris, CN329, inoculation amount 10^6 CFU/ml. The procedure:
as §1, §2

In data set [10] the test system is K. pneumoniae SR1. As to the kind of experiment: MIC by agar dilution method. In kind it is cell-based. The following applies: Klebsiella pneumoniae, K.pneumoniae R1, inoculation amount 10^6 CFU/ml. Here is the method:
as §1, §2

Data set [11] relates to S. mitis ATCC9811. As to the kind of experiment: MIC by agar dilution method. In kind it is cell-based. The note with it: Streptococcus mitis, inoculation amount 10^6 CFU/ml. Here is the method: as §1, §2
In data set [12] the test system is P.aeruginosa E-2. As to the kind of experiment: Treating effect on infections in mouse. The following applies: Pseudomonas aeruginosa, E2, P.aeruginosa E-2 infection. In kind it is in vivo.
Data set [13] deals with P.aeruginosa SR24. As to the kind of experiment: Treating effect on infections in mouse. The note with it: Pseudomonas aeruginosa, P.aeruginosa SR24 infection. Type of data set: in vivo.
A short description of data set [14]: in vivo. The note with it: mouse.
Data set [15] has as its system S.pneumoniae Type I. As to the kind of experiment: Treating effect on infections in mouse. In kind it is in vivo. The following applies: Streptococcus pneumoniae, S.pneumoniae Type I infection.

The term half-life denotes the time needed for the level to fall by half in the phase considered. Usually ED50 stands for the dose at which the effect has come halfway, by size or by number of responders. The MIC is the smallest concentration in the dilution series that meets the test's criterion for growth inhibition.

Converted amounts (≈) assume the structure as drawn.

In the case of `CO/N=C(\C(=O)NC1C(=O)N2C(C(=O)[O-])=C(Cn3cc[n+]4ncccc34)CSC12)c1nsc(N)n1` (centres unmarked) [Control compound (1)], the half-life in data set [1] was 76.8 min; in data set [14], 23.4 min. The 50% effective dose (ED50) was 0.76 mg/kg in data set [2]; 0.81 mg/kg in data set [3]; 4.73 mg/kg in data set [12]; 1.52 mg/kg in data set [13]; 0.69 mg/kg in data set [15]. Besides, the minimum inhibitory concentration (MIC) in data set [4] was 0.013 µg/mL (≈ 0.0252 µM); in data set [5], 0.1 µg/mL (≈ 0.194 µM); in data set [6] it was 0.78 µg/mL (≈ 1.51 µM); in data set [7] it was 0.05 µg/mL (≈ 0.097 µM); in data set [8], 0.1 µg/mL (≈ 0.194 µM); in data set [9], 0.1 µg/mL (≈ 0.194 µM). The figures for the MIC in [10] and in data set [11] were 0.05 µg/mL (≈ 0.097 µM) and 0.1 µg/mL (≈ 0.194 µM), respectively.
Consider `N#CNC(=O)NCc1cc(-c2cc[n+](CC3=C(C(=O)[O-])N4C(=O)C(NC(=O)/C(=N\OCF)c5nsc(N)n5)C4SC3)cc2)c[nH]1` (centres unmarked) [I-1′], for which the MIC in [4] worked out at 0.006 µg/mL (≈ 0.00915 µM); in data set [5] it was 0.013 µg/mL (≈ 0.0198 µM); in [6] it was 0.2 µg/mL (≈ 0.305 µM); in data set [7], 0.013 µg/mL (≈ 0.0198 µM); in data set [8], 0.025 µg/mL (≈ 0.0381 µM); in [9] it was 0.013 µg/mL (≈ 0.0198 µM). Also, the values for the minimum inhibitory concentration (MIC) in data set [10] and in data set [11] were 0.006 µg/mL (≈ 0.00915 µM) and 0.05 µg/mL (≈ 0.0763 µM), respectively.

Source of the values: patent US6458950B1, “Compounds and pharmaceutical compositions containing the same” (Shionogi & Co., Ltd., priority 1997, dated 2002).
